Results reported in patent US12729377B2, “RNAi agents and compositions for inhibiting expression of angiopoietin-like 3 (ANGPTL3), and methods of use” (Arrowhead Pharmaceuticals, Inc., priority 2017, dated 2026).
Where “and” joins values, the source holds several entries; their conditions need not be identical. Equal entries are not always repeated. In the oligonucleotide strings, read from the 5' end, every base follows the letter of its sugar. An asterisk marks phosphorothioate; unmarked linkages are phosphodiester. Other units and linkages are bracketed, terminal groups are in braces. A string of capitals states the bases alone. {NAG37} = tridentate N-acetyl-galactosamine targeting ligand, structure (NAG37)s; [invAb] = inverted abasic unit; m = 2'-O-methyl; f = 2'-fluoro

Tests used:
ANGPTL3 protein = assay: Example 5: serum ANGPTL3 protein by ELISA in cynomolgus monkeys; type: in vivo, cynomolgus macaque (Macaca fascicularis); settings: for Avg ANGPTL3 protein normalized to pre-treatment, individual animal / Avg ANGPTL3 protein normalized to pre-treatment, by group: 3.0 mg/kg single SC injection on day 1, serum; for Avg ANGPTL3 protein normalized to pre-treatment, by group: group average n=2; for reduction in ANGPTL3 protein compared to pre-treatment: all measured time points
Description: ANGPTL3 RNAi agents were evaluated in cynomolgus monkeys. On day 1, cynomolgus macaque (Macaca fascicularis) primates (also referred to herein as “cynos”) were administered a single subcutaneous injection of 0.3 mL/kg (approximately 2-3 mL volume, depending on animal mass) containing 3.0 mg/kg of ANGPTL3 RNAi agent AD05308 or AD05418, formulated in saline.
Two (2) cynos in each group were tested (n=2). Blood samples were drawn and serum samples were analyzed on days −37 (pre-dose), −15 (pre-dose), and −1 (pre-dose), 8, 16, 23, 30, and 37. Cynos were fasted overnight prior to each collection. ANGPTL3 protein levels in serum were measured by ELISA assay (R&D Systems), according to the manufacturer's recommendations. The ANGPTL3 protein levels were normalized. For normalization, the level of ANGPTL3 protein for each animal at a time point, was divided by the average pre-treatment level of expression in that animal (in this case at days −37, −15, and −1) to determine the ratio of expression “normalized to pre-treatment.”

ANGPTL3 gene = assay: Example 12: serum total cholesterol in LDLR knockout mice; type: in vivo, LDLR KO mice
Description: To evaluate the effect of RNAi agent administration in a disease model, mice having a genetic mutation for the LDL receptor (referred to herein as LDLR KO mice) were commercially obtained (The Jackson Laboratory). The LDLR KO mice are homozygous for the Ldlr^tm1Her mutation, and have elevated serum cholesterol levels, particularly when placed on a high fat diet. For three weeks prior to the onset of the study, thirty-nine (39) LDLR KO mice were placed on a high fat diet (Teklad Custom Diets TD.88137). An additional eight (8) LDLR KO mice were placed on a normal chow diet over the same three-week period. Pre-dose serum samples were taken on day −15 and day −1 after a four hour fast. At day 1, each mouse was given a single subcutaneous administration of 200 μl/30 g animal body weight containing the respective mg/kg dose of an ANGPTL3 RNAi agent in D5W (dextrose in 5% water), control (D5W) with no RNAi agent, or a control RNAi agent that included a nucleotide sequence designed to target the Hepatitis B Virus (HBV) genome. A second injection of the same formulation was administered to the animals on day 29. The dosing regimen for the study is recited in the following Table 60:
Each mouse remained on its respective diet through the duration of study. The RNAi agent tested (AD05488) included a modified sequence and an N-acetyl-galactosamine-containing targeting ligand conjugated to the 5′ terminal end of the sense strand. (See Tables 3, […] modified sequences and targeting ligand structures). The injections were performed between the skin and muscle (i.e. subcutaneous injections) into the loose skin over the neck and shoulder area. Serum was collected on days 8, 15, 22, 29 (pre-second dose), 36, 43, 50, and 57. LDLR KO mice were fasted for four hours prior to each collection. On day 15, four (4) LDLR KO mice from Groups 1, 2, and 3 (i.e., the groups being administered the high fat “Western” diet) were sacrificed after serum collection, and on day 29, an additional four (4) LDLR KO mice from Groups 1, 2, and 3 were sacrificed after serum collection, for the purpose of performing mRNA assessments.
ANGPTL3 protein levels in serum were measured by ELISA assay (R&D Systems), according to the manufacturer's recommendations. Triglycerides, total cholesterol, high-density lipoprotein (HDL), and low-density lipoprotein (LDL) in serum were measured on a Cobas® Integra 400 (Roche Diagnostics), according to the manufacturer's recommendations.
The ANGPTL3 protein levels, triglyceride levels, total cholesterol levels, HDL levels, and LDL levels for each animal were normalized. For normalization, respective levels of ANGPTL3 protein, TG, total cholesterol, HDL, or LDL for each animal at a time point was divided by the average pre-treatment level of expression in that animal (in this case the average of day −15 and day −1) to determine the ratio of expression “normalized to pre-treatment.”
Expression at a specific time point was then normalized to the D5W control group that was administered the same diet (i.e., either the high fat “Western” diet or the normal chow-fed diet) by dividing the “normalized to pre-treatment” ratio for an individual animal by the mean “normalized to pretreatment” ratio of all mice in the D5W control group on the respective same diet, resulting in expression for each time point normalized to that in the control group.

[1] = single 3.0 mg/kg subcutaneous, cynomolgus monkeys
[2] = Day 16, single 3.0 mg/kg subcutaneous, cynomolgus monkeys, 3 mg/kg
[3] = day 37, single 3.0 mg/kg subcutaneous, cynomolgus monkeys

Substance | Avg ANGPTL3 protein normalized to pre-treatment, individual animal (ANGPTL3 protein; Day 8, Cyno A) | Avg ANGPTL3 protein normalized to pre-treatment, individual animal (ANGPTL3 protein; Day 8, Cyno B) | Avg ANGPTL3 protein normalized to pre-treatment, by group (ANGPTL3 protein; Day 8) | Avg ANGPTL3 protein normalized to pre-treatment, individual animal (ANGPTL3 protein; Day 16, Cyno A) | Avg ANGPTL3 protein normalized to pre-treatment, individual animal (ANGPTL3 protein; Day 16, Cyno B) | Avg ANGPTL3 protein normalized to pre-treatment, by group (ANGPTL3 protein; Day 16) | Avg ANGPTL3 protein normalized to pre-treatment, individual animal (ANGPTL3 protein; Day 23, Cyno A) | Avg ANGPTL3 protein normalized to pre-treatment, individual animal (ANGPTL3 protein; Day 23, Cyno B) | Avg ANGPTL3 protein normalized to pre-treatment, by group (ANGPTL3 protein; Day 23) | Avg ANGPTL3 protein normalized to pre-treatment, individual animal (ANGPTL3 protein; Day 30, Cyno A) | Avg ANGPTL3 protein normalized to pre-treatment, individual animal (ANGPTL3 protein; Day 30, Cyno B) | Avg ANGPTL3 protein normalized to pre-treatment, by group (ANGPTL3 protein; Day 30) | Avg ANGPTL3 protein normalized to pre-treatment, individual animal (ANGPTL3 protein; Day 37, Cyno A) | Avg ANGPTL3 protein normalized to pre-treatment, individual animal (ANGPTL3 protein; Day 37, Cyno B) | Avg ANGPTL3 protein normalized to pre-treatment, by group (ANGPTL3 protein; Day 37) | reduction in ANGPTL3 protein compared to pre-treatment (ANGPTL3 protein; [1]) | also measured
AD05308: RNAi agent duplex: antisense AM07003-AS, sense AM07002-SS (chain 1 mU*fG*mU*fUmGfAmAfUmUfAmAfUmGfUmCfCmAfUmGfG*mA; chain 2 {NAG37}*[invAb]*mUmCmCmAmUmGmGmAfCfAfUmUmAmAmUmUmCmAmAmCmA*[invAb]) | 0.545 | 0.287 | 0.416 | 0.423 | 0.471 | 0.447 | 0.832 | 0.465 | 0.649 | 0.722 | 0.572 | 0.647 | 0.709 | 0.421 | 0.565 | reduction | 
AD05418: RNAi agent duplex: antisense AM07159-AS, sense AM07158-SS (antisense mU*fU*mU*fGmAfAmUfUmAfAmUfGmUfCmCfAmUfGmGfG*mU; sense {NAG37}*[invAb]*mAmCmCmCmAmUmGmGfAfCfAmUmUmAmAmUmUmCmAmAmA*[invAb]) | 0.585 | 0.503 | 0.544 | 0.358 | 0.309 | 0.334 | 0.260 | 0.340 | 0.300 | 0.311 | 0.467 | 0.389 | 0.212 | 0.328 | 0.270 | reduction | normalized ANGPTL3 protein level, individual animals (ANGPTL3 protein; [2]): 0.358 and 0.309; reduction in ANGPTL3 protein, individual animals (ANGPTL3 protein; [2]): approximately 64% and ~69%; average ANGPTL3 protein normalized to pre-treatment (ANGPTL3 protein; [3]): 0.270; average reduction in ANGPTL protein levels (ANGPTL3 protein; [3]): approximately 73%
AD05488: RNAi agent duplex: antisense AM07235-AS, sense AM07234-SS (antisense mU*fA*mC*fUmGfAmUfCmAfAmAfUmAfUmGfUmUfGmAfG*mC; sense {NAG37}*[invAb]*mGmCmUmCmAmAmCmAfUfAfUmUmUmGmAmUmCmAmGmUmA*[invAb]) |  |  |  |  |  |  |  |  |  |  |  |  |  |  |  |  | reductions in total cholesterol (ANGPTL3 gene; 3.0 mg/kg on days 1 and 29 (Groups 2 and 5), LDLR KO mice): significant reductions; Avg Total Chol Normalized to Pre-Treatment and Control (Diet Matched) (ANGPTL3 gene; 3.0 mg/kg sc day 1, High Fat Diet, Day 8): 0.524; Avg Total Chol Normalized to Pre-Treatment and Control (Diet Matched) (ANGPTL3 gene; 3.0 mg/kg sc day 1, High Fat Diet, Day 15): 0.438; Avg Total Chol Normalized to Pre-Treatment and Control (Diet Matched) (ANGPTL3 gene; 3.0 mg/kg sc day 1, High Fat Diet, Day 22): 0.410; Avg Total Chol Normalized to Pre-Treatment and Control (Diet Matched) (ANGPTL3 gene; 3.0 mg/kg sc day 1, High Fat Diet, Day 29 (pre-second dose)): 0.410; Avg Total Chol Normalized to Pre-Treatment and Control (Diet Matched) (ANGPTL3 gene; 3.0 mg/kg sc day 1, Normal Diet, Day 8): 0.645; Avg Total Chol Normalized to Pre-Treatment and Control (Diet Matched) (ANGPTL3 gene; 3.0 mg/kg sc day 1, Normal Diet, Day 15): 0.683; Avg Total Chol Normalized to Pre-Treatment and Control (Diet Matched) (ANGPTL3 gene; 3.0 mg/kg sc day 1, Normal Diet, Day 22): 0.691; Avg Total Chol Normalized to Pre-Treatment and Control (Diet Matched) (ANGPTL3 gene; 3.0 mg/kg sc day 1, Normal Diet, Day 29 (pre-second dose)): 0.636; Avg Total Chol Normalized to Pre-Treatment and Control (Diet Matched) (ANGPTL3 gene; 3.0 mg/kg sc days 1 and 29, High Fat Diet, Day 36): 0.438; Avg Total Chol Normalized to Pre-Treatment and Control (Diet Matched) (ANGPTL3 gene; 3.0 mg/kg sc days 1 and 29, High Fat Diet, Day 43): 0.363; Avg Total Chol Normalized to Pre-Treatment and Control (Diet Matched) (ANGPTL3 gene; 3.0 mg/kg sc days 1 and 29, High Fat Diet, Day 50): 0.374; Avg Total Chol Normalized to Pre-Treatment and Control (Diet Matched) (ANGPTL3 gene; 3.0 mg/kg sc days 1 and 29, High Fat Diet, Day 57): 0.341; Avg Total Chol Normalized to Pre-Treatment and Control (Diet Matched) (ANGPTL3 gene; 3.0 mg/kg sc days 1 and 29, Normal Diet, Day 36): 0.758; Avg Total Chol Normalized to Pre-Treatment and Control (Diet Matched) (ANGPTL3 gene; 3.0 mg/kg sc days 1 and 29, Normal Diet, Day 43): 0.657; Avg Total Chol Normalized to Pre-Treatment and Control (Diet Matched) (ANGPTL3 gene; 3.0 mg/kg sc days 1 and 29, Normal Diet, Day 50): 0.824; Avg Total Chol Normalized to Pre-Treatment and Control (Diet Matched) (ANGPTL3 gene; 3.0 mg/kg sc days 1 and 29, Normal Diet, Day 57): 0.684
